Earlier results as cited in US20230346892A1, “TREATMENT OF LONG BONE FRACTURES WITH ABALOPARATIDE” (Radius Health, Inc., priority 2021, published 2023).

Assays:
[1] = tested on: internally fixed femur fractures; conditions: rats with internally fixed femur fractures; Lanske et al. 2019
[2] = tested on: osteoporosis

## abaloparatide
[1]
  fracture healing: improved fracture healing
[2]; compared with teriparatide, treating osteoporosis, Sleeman 2019, Miller 2016
  bone mineral density increases: greater bone mineral density increases
[2]; in vivo
  hypercalcemia: less hypercalcemia
